Results reported in patent US20220142948A1, “COMPOSITIONS AND METHODS FOR MODULATING METABOLIC REGULATORS OF T CELL PATHOGENICITY” (The Broad Institute, Inc., priority 2019, published 2022).
Entries after “also recorded” stand apart in the source; their conditions may differ.

Experiments:
Type in all cases: cell-based, mouse
[1] = test system: Th17 cells (Th17n, Th17p); assay: Legendplex analysis of cytokines in culture supernatant
Procedure: Legendplex. Cytokine concentrations in supernatants of in vitro cultures were analyzed by the LegendPlex Mouse Th Cytokine Panel (13-plex) (BioLegend) according to the manufacturer's instructions and analyzed on a FACS LSR II (BD Biosciences).
Seahorse assay was performed and seahorse media was prepared following manufacturer instructions (Agilent). Cells were re-stimulated with PMA/ionomycin for four hours in the presence of brefaldin and monensin before analysis for cytokines by intracellular cytokine staining. Cytokine concentrations in supernatants of in vitro cultures were analyzed by the LegendPlex Mouse Th Cytokine Panel (13-plex) (BioLegend) according to the manufacturer's instructions and analyzed on a FACS LSR II (BD Biosciences).

[2] = test system: cellular polyamines in Th17p, Th17n and iTregs; assay: Total cellular polyamine content (enzymatic assay, Total Polyamine Assay Kit)
Source text: Polyamine ELISA. Cell pellets of in vitro differentiated cells were frozen down and further processed with the Total Polyamine Assay Kit (BioVision Inc.) according to the manufacturer's instructions.

[3] = test system: Th17 cells (Th17n, Th17p); assay: qPCR of in vitro differentiated T cells
Procedure: qPCR. RNA was isolated using RNeasy Plus Mini Kit (Qiagen) and reverse transcribed to cDNA with iScript cDNA Synthesis Kit (Bio-Rad). Gene expression was analyzed by quantitative real-time PCR on a ViiA7 System (Thermo Fisher Scientific) using TaqMan Fast
Advanced Master Mix (Thermo Fisher Scientific) with the following primer/probe sets: Il-17a (Mm00439618_m1), Il-17f (Mm00521423_m1), Foxp3 (Mm00475162_m1), Tead1 (Mm00493507_m1), Taz (Mm00504978_m1), Sat1 (Mm00485911_g1) and Actb (Applied Biosystems). Expression values were calculated relative to Actb detected in the same sample by duplex qPCR.
qPCR. RNA was isolated using RNeasy Plus Mini Kit (Qiagen) and reverse transcribed to cDNA with iScript cDNA Synthesis Kit (Bio-Rad). Gene expression was analyzed by quantitative real-time PCR on a ViiA7 System (Thermo Fisher Scientific) using TaqMan Fast Advanced Master Mix (Thermo Fisher Scientific) with the following primer/probe sets: Ass1 (Mm00711256_m1), Odc1 (Mm02019269_g1), Sat1 (Mm00485911_g1), Srm (Mm00726089_s1), Sms (Mm00786246_s1), Il-17a (Mm00439618_m1), Il-17f (Mm00521423_m1), Foxp3 (Mm00475162_m1), Tead1 (Mm00493507_m1), Taz (Mm00504978_m1), and Actb (Applied Biosystems). Expression values were calculated relative to Actb detected in the same sample by duplex qPCR.

[4] = test system: PGAM in Th17n and Th17p cells; assay: 13C-glucose carbon tracing by LC/MS
Procedure: For carbon tracing experiments Th17 cells were differentiated as described. Thereafter, cells were washed and cultured in media supplemented with 8 mM [U-13C]-glucose for 15 min or 3 hrs.
Let |Ci| be the number of carbon atoms in metabolite i, and let xc,i,j be the measured signal of metabolite i in sample j (subsequent to all normalization and QC procedures) in which there are exactly c 13C atoms. The comparisons of carbon flows are based on the statistic yi,j=(Σt=0^|C^i^|t·xt,i,j)/(|Ci|·Σt=0^|C^i^|xt,i,j)
which measures the 13C ratio of the total carbon contents for metabolite i in sample j.
To find metabolites with differential 13C relative abundance, Applicants computed the ratio yi,j of 13C out of the total carbon contents for each metabolite i in sample j. Let |Ci| be the number of carbon atoms in metabolite i, and let xc,i,j be the measured signal of metabolite i in sample j (subsequent to all normalization and QC procedures) in which there are exactly c 13C atoms.

[5] = supernatant from both Th17n and Th17p cultures
[6] = non-pathogenic and pathogenic Th17 cells

NCCC[C@](N)(C(=O)O)C(F)F [DFMO, 2-(difluoromethyl)ornithine]
DFMO-dependent upregulation of IL-10 ([1]; Th17n cells, loss of JMJD3, supernatant): reduced
IL-13 ([1]; pathogenic Th17 cells): decreased
IL-9 ([1]; protein, Th17n and Th17p cultures): promoted; also recorded: promoting
IL-17A [1, 5]: significantly inhibited
IL-17F [1, 5]: significantly inhibited
IFNg ([1]; supernatant, Th17n and Th17p): did not consistently influence
IL-5 ([1]; supernatant, Th17n and Th17p): did not consistently influence
IL-10 ([1]; supernatant, Th17n and Th17p): did not consistently influence
IL-13 ([1]; supernatant, Th17n and Th17p): did not consistently influence
TNFa ([1]; supernatant, Th17n and Th17p): did not consistently influence
polyamine concentration ([2]; Th17n cells): decrease; also recorded: suppression of polyamines
polyamine concentration ([2]; Th17p cells): decrease; also recorded: suppression of polyamines
polyamine concentration ([2]; iTregs): decrease; also recorded: suppression of polyamines
Ass1 expression [3]: specifically suppresses
IL-17 (quantitative real time PCR) ([3]; CD4 T cells): decreased
SAT1 expression ([3]; T cells, Th17n and Th17p): reduces the expression; also recorded: decrease; also recorded: specifically suppresses; also recorded: decreases expression; also recorded: consistently suppressed
relative expression of Foxp3 [3, 6]: increase
relative expression of IL17A [3, 6]: decrease
relative expression of IL17F [3, 6]: decrease
SAT1 expression ([3]; pathogenic Th17 cells): decreased expression

epigallocatechin-3-gallate [EGCG]
cytokine profile / cytokine production ([1]; glycolysis enzyme inhibitors, Th17 cell cultures): retained their cytokine profile
13C contents of 2PG ([4]; Th17n and Th17p): decrease; also recorded: disturbs
13C ratio of 2PG after EGCG ([4]; Th17p): 33%
